How the values were obtained:
[1] = test system: cell population of preadipocytes (TPO+); test: Differentiation induction of preadipocytes into megakaryocytes/platelets in MKLI medium; CD41 positive cells by flow cytometry; type: cell-based, human
Procedure: In order to check whether “cell population of preadipocytes (TPO+)” obtained in Example 1 can be actually used for efficient production of megakaryocytes/platelets (megakaryocyte and/or platelet), differentiation of preadipocytes into megakaryocyte/platelets was induced in accordance with the method described in Patent Document 1.
A culture dish was coated with collagen and then a culture medium was added to the dish. As the culture medium, MKLI medium (megakaryocyte lineage induction medium) known as a medium which can induce differentiation of hematopoietic stem cells into megakaryocytes/platelets, was used. […]
The “cell population of preadipocytes (TPO+)” obtained in Example 1 was cultured in MKLI medium as mentioned above at 37° C. and in the conditions of a CO2 concentration of 5% for 7 days. After culture, the cell population was separately taken and the ratio (%) of CD41 (specific marker of megakaryocytes or platelets) positive cells in the cell population was determined. […]
In contrast, the ratio of CD41 positive cells in the “cell population of preadipocytes (TPO−)” obtained in Example 1 was determined by flow cytometry. […]

CMK cells [2] = settings: cited from earlier work
[3] = test system: Human primary culture preadipocytes (HPAd); test: Culture of preadipocytes in basic medium with TPO; c-MPL receptor positive cells by flow cytometry and immunostaining; type: cell-based
Procedure: In order to check whether expression of a c-MPL receptor on a cell surface of a mesenchymal cell is promoted or not, the following culture experiment was carried out by culturing mesenchymal cells in a mesenchymal cell culturing basic medium comprising a c-MPL receptor active substance. Note that, in the culture experiment, preadipocytes were used as the mesenchymal cells.
Human primary culture preadipocytes (Human Preadipocytes: HPAd) manufactured by CELL APPLICATIONS were prepared. A culture dish was coated with collagen and then a culture medium was added to the dish. As the culture medium, DMEM medium (Dulbecco's Modified Eagle's Medium, manufactured by Life Technology Co.), to which a 10% fetal bovine serum (manufactured by Sigma), a 1% non-essential amino acid(s) (manufactured by Life Technology Co.), a 100 U/mL penicillin-streptomycin solution (manufactured by Life Technology Co.) and 50 ng/mL recombinant human TPO (manufactured by R&D Systems) were added, was used. The preadipocytes were cultured in the culture medium at 37° C. for 3 days. […] The preadipocytes (hereinafter referred to as “the cell population of preadipocytes (TPO+)”) were labeled with a fluorescence-labeled anti c-MPL antibody (manufactured by BD Bioscience), and fluorescence was measured by flow cytometry. When the ratio of c-MPL receptor positive cells was determined in this manner, the ratio was 3.68±0.39%. Note that, the cell population of preadipocytes (TPO+) was immuno-stained with a “fluorescence-labeled anti c-MPL antibody” and “DAPI (4′,6-diamidino-2-phenylindole)”. In the right panel, cells emitting fluorescence derived from the fluorescence-labeled anti c-MPL antibody are observed around the circular fluorescence emitted from nuclei stained with DAPI.
In contrast, the preadipocytes (hereinafter referred to as “cell population of preadipocytes (TPO−)”) were cultured in the same method except that recombinant human TPO was not added to a culture medium. When the ratio of the c-MPL receptor positive cells was determined by flow cytometry, the ratio was 0.67±0.12%. […]

CMK cells [4] = settings: luciferase gene ligated downstream of the promoter; cited from earlier work

thrombopoietin [TPO]
number of megakaryocytes/platelets produced relative to preadipocytes cultured in medium not comprising recombinant TPO ([1]; TPO+ vs TPO− preadipocytes): about 1.7 times
ratio of CD41 positive cells in the cell population ([1]; preadipocytes pre-cultured with TPO, then MKLI medium 37° C., 5% CO2, 7 days, FITC-labeled anti CD41 antibody, flow cytometry): 28.5±2.1%
expression of a c-MPL receptor on the surface of CMK cells (CMK cells [2]): reduces expression
ratio of c-MPL receptor positive cells ([3]; 50 ng/mL recombinant human TPO, 37° C., 3 days, fluorescence-labeled anti c-MPL antibody, flow cytometry): 3.68±0.39%
increase of the ratio of c-MPL receptor positive cells relative to the case where TPO is not added ([3]; TPO added to culture medium vs not added): about 5.5 time
c-MPL receptor positive cells by immunostaining (FIG. 1, right panel) ([3]; TPO added, 3 days, fluorescence-labeled anti c-MPL antibody and DAPI): a large number of the cells, i.e., c-MPL receptor positive cells are present
activity of the promotor of a c-MPL receptor gene (CMK cells [4]): induced
